From patent US9181193B2, “Indenoquinolone compound, preparation method and use thereof” (Second Military Medical University, PLA, priority 2010, dated 2015) come the findings set out here.

What all share (assay type): cell-based
The test system of assay [1] is HepG2 (human hepatoma cells). Description: MTT in vitro anti-tumor activity test, HepG2.
Assay [2] has as its system MDA-MB-435 (human breast cancer cells). The assay is described as follows: MTT in vitro anti-tumor activity test, MDA-MB-435.
For assay [3], the system named is Colo205 (human colon cancer cells). The assay is described as follows: MTT in vitro anti-tumor activity test, Colo205.
Assay [4] relates to A549 (human lung cancer cells). The assay is described as follows: MTT in vitro anti-tumor activity test, A549.
The mark [5] stands for this setting: HepG2 human hepatoma cells, MTT, 72 h.
Where [6] appears, read: MDA-MB-435, 100 μg/mL, MTT, 72 h.
Setting [7] is: MDA-MB-435 human breast cancer cells, MTT, 72 h.
Where [8] appears, read: Colo205 human colon cancer cells, MTT, 72 h.
The mark [9] stands for this setting: A549 human lung cancer cells, MTT, 72 h.
The mark [10] stands for this setting: MTT assay, 72 h incubation, HepG2 cells.
[11] abbreviates: inhibition at 100 μg/mL, MTT assay, 72 h, HepG2 cells.
The mark [12] stands for this setting: MTT assay, 72 h incubation, MDA-MB-435 cells.
[13] abbreviates: inhibition at 100 μg/mL, MTT assay, 72 h, MDA-MB-435 cells.
Where [14] appears, read: MTT assay, 72 h incubation, Colo205 cells.
Setting [15] is: inhibition at 100 μg/mL, MTT assay, 72 h, Colo205 cells.
Setting [16] is: MTT assay, 72 h incubation, A549 cells.
Where [17] appears, read: inhibition at 100 μg/mL, MTT assay, 72 h, A549 cells.

SMILES strings stand for the structures.

For `COc1cc2nc(OCCN(C)C)c3c(c2cc1OC)C(=O)c1cc(Cl)ccc1-3` [Compound 26], in assay [1] (HepG2, 100 μg/mL, MTT, 72 h), the “HepG2 100 μg/mL IC %” value is recorded as 97.91%. Also, the “HepG2 IC50” value in assay [1] (setting [5]) stood at 11.27 µg/mL. Besides, in assay [2] (setting [6]), the “MDA-MB-435 100 μg/mL IC %” value is 100%. The “MDA-MB-435 IC50” value in assay [2] (setting [7]) stood at 10.51 µg/mL. The “Colo205 100 μg/mL IC %” value in assay [3] (Colo205, 100 μg/mL, MTT, 72 h) came out at 100%. Besides, the “Colo205 IC50” value in assay [3] (setting [8]) is 1.45 µg/mL. Further, the “A549 100 μg/mL IC %” value in assay [4] (A549, 100 μg/mL, MTT, 72 h) is listed as 100%. In addition, the “A549 IC50” value in assay [4] (setting [9]) came out at 6.89 µg/mL.

Consider `COc1cc2nc(OCCn3ccnc3)c3c(c2cc1OC)C(=O)c1cc(Cl)ccc1-3` [Compound 27], for which the “HepG2 100 μg/mL IC %” value in assay [1] (HepG2, 100 μg/mL, MTT, 72 h) was 57.51%. For the same compound, the “HepG2 IC50” value in assay [1] (setting [5]) came out at 56.61 µg/mL. In addition, the “MDA-MB-435 100 μg/mL IC %” value in assay [2] (setting [6]) stood at 51.23%. For the same compound, in assay [2] (setting [7]), the “MDA-MB-435 IC50” value turned out to be 91.52 µg/mL. Besides, the “Colo205 100 μg/mL IC %” value in assay [3] (Colo205, 100 μg/mL, MTT, 72 h) was found to be 66.27%. For the same compound, the “Colo205 IC50” value in assay [3] (setting [8]) is 25.50 µg/mL. The “A549 100 μg/mL IC %” value in assay [4] (A549, 100 μg/mL, MTT, 72 h) was 35.12%. Moreover, the “A549 IC50” value in assay [4] (setting [9]) is above 100 µg/mL.

Regarding `COc1cc2nc(OCCCN(C)C)c3c(c2cc1OC)C(=O)c1cc(Cl)ccc1-3` [Compound 29], in assay [1] (HepG2, 100 μg/mL, MTT, 72 h), the “HepG2 100 μg/mL IC %” value came to 91.20%. Besides, the “HepG2 IC50” value in assay [1] (setting [5]) was 3.71 µg/mL. Also, in assay [2] (setting [6]), the “MDA-MB-435 100 μg/mL IC %” value is 100%. In addition, in assay [2] (setting [7]), the “MDA-MB-435 IC50” value worked out at 1.45 µg/mL. The “Colo205 100 μg/mL IC %” value in assay [3] (Colo205, 100 μg/mL, MTT, 72 h) was 98.69%. Also, the “Colo205 IC50” value in assay [3] (setting [8]) worked out at 1.47 µg/mL. Moreover, the “A549 100 μg/mL IC %” value in assay [4] (A549, 100 μg/mL, MTT, 72 h) amounted to 100%. In addition, in assay [4] (setting [9]), the “A549 IC50” value is 1.04 µg/mL.

In the case of `COc1ccc2c(c1)C(=O)c1c-2c(OCCBr)nc2ccccc12` [Compound 30], the “HepG2 100 μg/mL IC %” value in assay [1] (HepG2, 100 μg/mL, MTT, 72 h) is recorded as 0%. Also, in assay [1] (setting [5]), the “HepG2 IC50” value is above 100 µg/mL. Besides, the “MDA-MB-435 100 μg/mL IC %” value in assay [2] (setting [6]) worked out at 31.90%. Besides, the “MDA-MB-435 IC50” value in assay [2] (setting [7]) was above 100 µg/mL. For the same compound, in assay [3] (Colo205, 100 μg/mL, MTT, 72 h), the “Colo205 100 μg/mL IC %” value is 21.11%. The “Colo205 IC50” value in assay [3] (setting [8]) was above 100 µg/mL. Moreover, the “A549 100 μg/mL IC %” value in assay [4] (A549, 100 μg/mL, MTT, 72 h) came to 19.48%. For the same compound, the “A549 IC50” value in assay [4] (setting [9]) was above 100 µg/mL.

With `COc1ccc2c(c1)C(=O)c1c-2c(=O)n(CCN2CCCC2)c2ccccc12` [Compound 32], the “HepG2 IC50” value in assay [1] (setting [10]) came to 6.92 µg/mL. For the same compound, the “HepG2 100 μg/mL IC %” value in assay [1] (setting [11]) is given as 70.03%. The “MDA-MB-435 IC50” value in assay [2] (setting [12]) came out at 10.73 µg/mL. In assay [2] (setting [13]), the “MDA-MB-435 100 μg/mL IC %” value is listed as 96.48%. Further, the “Colo205 IC50” value in assay [3] (setting [14]) was found to be 7.45 µg/mL. Also, the “Colo205 100 μg/mL IC %” value in assay [3] (setting [15]) came to 92.85%. Also, the “A549 IC50” value in assay [4] (setting [16]) is 8.58 µg/mL. Also, the “A549 100 μg/mL IC %” value in assay [4] (setting [17]) amounted to 92.32%.

With `COc1ccc2c(c1)C(=O)c1c-2c(=O)n(CCN2CCOCC2)c2ccccc12` [Compound 33], the “HepG2 IC50” value in assay [1] (setting [10]) was above 100 µg/mL. Besides, in assay [1] (setting [11]), the “HepG2 100 μg/mL IC %” value came out at 4.57%. The “MDA-MB-435 IC50” value in assay [2] (setting [12]) is above 100 µg/mL. For the same compound, the “MDA-MB-435 100 μg/mL IC %” value in assay [2] (setting [13]) is 27.19%. In addition, the “Colo205 IC50” value in assay [3] (setting [14]) was above 100 µg/mL. Further, in assay [3] (setting [15]), the “Colo205 100 μg/mL IC %” value stood at 29.31%. In assay [4] (setting [16]), the “A549 IC50” value was above 100 µg/mL. The “A549 100 μg/mL IC %” value in assay [4] (setting [17]) turned out to be 40.55%.

`COc1ccc2c(c1)C(=O)c1c-2c(=O)n(CCCN(C)C)c2ccccc12` [Compound 34]: in assay [1] (setting [10]), the “HepG2 IC50” value is recorded as “≈100 μg/mL”. Besides, the “HepG2 100 μg/mL IC %” value in assay [1] (setting [11]) was determined as 49.68%. Moreover, the “MDA-MB-435 IC50” value in assay [2] (setting [12]) was 19.78 µg/mL. Moreover, the “MDA-MB-435 100 μg/mL IC %” value in assay [2] (setting [13]) worked out at 100%. The “Colo205 IC50” value in assay [3] (setting [14]) is 6.82 µg/mL. The “Colo205 100 μg/mL IC %” value in assay [3] (setting [15]) was 99.54%. Moreover, in assay [4] (setting [16]), the “A549 IC50” value was determined as 6.58 µg/mL. Further, the “A549 100 μg/mL IC %” value in assay [4] (setting [17]) was 100%.

Regarding `CN(C)CCn1c(=O)c2c(c3ccccc31)C(=O)c1cc(Cl)ccc1-2` [Compound 35], in assay [1] (setting [10]), the “HepG2 IC50” value came to 20.09 µg/mL. The “HepG2 100 μg/mL IC %” value in assay [1] (setting [11]) is recorded as 100%. Besides, the “MDA-MB-435 IC50” value in assay [2] (setting [12]) came to 3.88 µg/mL. Besides, in assay [2] (setting [13]), the “MDA-MB-435 100 μg/mL IC %” value came out at 100%. Besides, the “Colo205 IC50” value in assay [3] (setting [14]) was determined as 3.89 µg/mL. Also, the “Colo205 100 μg/mL IC %” value in assay [3] (setting [15]) was determined as 100%. Further, the “A549 IC50” value in assay [4] (setting [16]) came to 19.04 µg/mL. Besides, the “A549 100 μg/mL IC %” value in assay [4] (setting [17]) turned out to be 72.15%.

As to `CCN(CC)CCn1c(=O)c2c(c3ccccc31)C(=O)c1cc(Cl)ccc1-2` [Compound 36], the “HepG2 IC50” value in assay [1] (setting [10]) was determined as 61.69 µg/mL. For the same compound, the “HepG2 100 μg/mL IC %” value in assay [1] (setting [11]) is recorded as 59.74%. The “MDA-MB-435 IC50” value in assay [2] (setting [12]) was 28.86 µg/mL. In assay [2] (setting [13]), the “MDA-MB-435 100 μg/mL IC %” value stood at 83.69%. For the same compound, the “Colo205 IC50” value in assay [3] (setting [14]) is 28.58 µg/mL. The “Colo205 100 μg/mL IC %” value in assay [3] (setting [15]) worked out at 79.84%. In addition, in assay [4] (setting [16]), the “A549 IC50” value was found to be 78.22 µg/mL. Besides, the “A549 100 μg/mL IC %” value in assay [4] (setting [17]) is 61.01%.
